Experimental data taken from patent publication US8883782B2, “Spiro-tetracyclic ring compounds as beta-secretase modulators and methods of use” (Amgen Inc., priority 2010, dated 2014).
Where two headings read alike, the source gives them in different places.

What was measured:
[1] = tested on: Aβ40 in conditioned medium of cells stably expressing Amyloid Precursor Protein (APP); assay: In vitro BACE cell-based assay (Aβ40 in conditioned medium, sandwich ELISA); settings: Homo sapiens, read-out: HEK cell assay
How it was run: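 Secreted Aβ40 is captured with pAb40 and detected with biotinylated 6E10, read by europium time-resolved fluorescence. IC50 comes from percent inhibition versus concentration.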

[2] = target: Beta Secretase enzyme (BACE) (Homo sapiens, UniProt P56817); assay: In vitro enzymatic BACE FRET (fluorescence resonance energy transfer) assay; format: biochemical; settings: average IC50, enzyme assay; read-out: BACE 1 FRET assay
How it was run: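 Acetate buffer (0.05 M, pH 4.2), 10% DMSO final, 100 uM nonionic detergent genapol. Substrate addition (50 nM FRET peptide) initiates; one-hour incubation; Tris raises pH to neutrality before fluorescence measurement.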

[3] = HEK293, average IC50, HEK cells

Chain of Beta Secretase enzyme (BACE) (P56817 46-501, species assumed): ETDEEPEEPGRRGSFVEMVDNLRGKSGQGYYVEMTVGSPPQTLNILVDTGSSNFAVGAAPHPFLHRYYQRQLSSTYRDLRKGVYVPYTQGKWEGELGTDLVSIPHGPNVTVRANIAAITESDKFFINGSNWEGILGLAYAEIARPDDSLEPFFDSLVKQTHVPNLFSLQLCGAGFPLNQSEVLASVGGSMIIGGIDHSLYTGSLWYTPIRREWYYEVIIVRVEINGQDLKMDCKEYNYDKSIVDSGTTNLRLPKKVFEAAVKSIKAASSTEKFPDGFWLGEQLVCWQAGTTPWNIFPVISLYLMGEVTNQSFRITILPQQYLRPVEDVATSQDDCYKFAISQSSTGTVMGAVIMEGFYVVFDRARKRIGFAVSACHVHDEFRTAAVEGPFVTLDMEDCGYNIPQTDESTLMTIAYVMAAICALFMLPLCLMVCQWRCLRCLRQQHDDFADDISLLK

| SMILES | IC50 ([1]; HEK293, average IC50) [nM] | IC50 [2] [nM] | IC50 [1, 3] [nM] |
| --- | --- | --- | --- |
| COc1cncc(-c2ccc3c(c2)[C@@]2(COC(N)=N2)c2cc(C#CC4(C)COC4)cnc2O3)c1 [Example 461, (5S)-7-(5-methoxy-3-pyridinyl)-3-((3-methyl-3-oxetanyl)ethynyl)spiro[chromeno[2,3-b]pyridine-5,4′-[1,3]oxazol]-2′-amine] | – | 1.8 | 6.3 |
| N#Cc1cc(-c2ccc3c(c2)[C@@]2(CSC(N)=N2)c2cc(C4=CCCOC4)cnc2O3)ccc1F [Example 783, 5-((5S)-2′-amino-3-(5,6-dihydro-2H-pyran-3-yl)spiro[chromeno[2,3-b]pyridine-5,4′-[1,3]thiazol]-7-yl)-2-fluorobenzonitrile] | 10 | 0.6 | – |
| CC#Cc1cncc(-c2ccc3c(c2)[C@@]2(COC(N)=N2)c2cc(OCC(C)(C)C#N)cc(F)c2O3)c1 [Example 948, 3-(((4S)-2-amino-4′-fluoro-7′-(5-(1-propyn-1-yl)-3-pyridinyl)spiro[1,3-oxazole-4,9′-xanthen]-2′-yl)oxy)-2,2-dimethylpropanenitrile] | – | 0.4 | 4 |
| CC(C)(O)CCc1cc(F)c2c(c1)[C@]1(COC(N)=N1)c1cc(-c3cccnc3F)ccc1O2 [Example 92, (S)-4-(2-amino-5′-fluoro-2′-(2-fluoropyridin-3-yl)-5H-spiro[oxazole-4,9′-xanthene]-7′-yl)-2-methylbutan-2-ol] | 4.2 | 1 | – |
| NC1=N[C@@]2(CO1)c1cc(-c3ccc(F)nc3)ccc1Oc1c(F)cc(-c3ncccn3)cc12 [Example 289, (4S)-4′-fluoro-7′-(6-fluoro-3-pyridinyl)-2′-(2-pyrimidinyl)spiro[1,3-oxazole-4,9′-xanthen]-2-amine] | 14.6 | 2.5 | – |
| COc1cc(F)c2c(c1)[C@]1(COC(N)=N1)c1cc(-c3cncc(C#CC(C)(C)O)c3)ccc1O2 [Example 822, 4-(5-((4S)-2-amino-5′-fluoro-7′-methoxyspiro[1,3-oxazole-4,9′-xanthen]-2′-yl)-3-pyridinyl)-2-methyl-3-butyn-2-ol] | 3000 | 93.3 | – |
| CC1(COc2cc(F)c3c(c2)[C@]2(COC(N)=N2)c2cc(-c4cccc(C#N)c4)ccc2O3)COC1 [Example 562, 3-((4S)-2-amino-5′-fluoro-7′-((3-methyl-3-oxetanyl)methoxy)spiro[1,3-oxazole-4,9′-xanthen]-2′-yl)benzonitrile] | – | 2 | 5.8 |
| NC1=N[C@@]2(CO1)c1cc(OCc3cccc(C(F)(F)F)c3)ccc1Oc1ncc(-c3cccnc3)cc12 [Example 985, (5S)-3-(3-pyridinyl)-7-((3-(trifluoromethyl)benzyl)oxy)spiro[chromeno[2,3-b]pyridine-5,4′-[1,3]oxazol]-2′-amine] | 288 | 68.3 | – |
| NC1=N[C@@]2(CO1)c1cc(-c3cc(Cl)cnc3F)ccc1Oc1cnc(C3=CCOCC3)cc12 [Example 361, (5S)-7-(5-chloro-2-fluoro-3-pyridinyl)-3-(3,6-dihydro-2H-pyran-4-yl)spiro[chromeno[2,3-c]pyridine-5,4′-[1,3]oxazol]-2′-amine] | 6.1 | 0.5 | – |
| NC1=N[C@@]2(CO1)c1cc(-c3cncc(F)c3)ccc1Oc1c(F)cc(N3CCOCC3)cc12 [Example 277, (4S)-4′-fluoro-7′-(5-fluoro-3-pyridinyl)-2′-(4-morpholinyl)spiro[1,3-oxazole-4,9′-xanthen]-2-amine] | 6.4 | 1.5 | – |

Continued by falling IC50 [2], values first:

| IC50 ([1]; HEK293, average IC50) [nM] | IC50 [2] [nM] | IC50 [1, 3] [nM] | SMILES |
| --- | --- | --- | --- |
| – | 369 | 6670 | NC1=N[C@]2(CS1)c1cc(-c3cncc(F)c3)ccc1Oc1cnc(C3=CCOCC3)cc12 [Example 618, (5R)-3-(3,6-dihydro-2H-pyran-4-yl)-7-(5-fluoro-3-pyridinyl)spiro[chromeno[2,3-c]pyridine-5,4′-[1,3]thiazol]-2′-amine] |
| – | 172 | 602 | COc1ncc(-c2ccc3c(c2)[C@@]2(COC(N)=N2)c2cc(N4CCC(F)(F)CC4)ncc2O3)cn1 [Example 419, (5S)-3-(4,4-difluoro-1-piperidinyl)-7-(2-methoxy-5-pyrimidinyl)spiro[chromeno[2,3-c]pyridine-5,4′-[1,3]oxazol]-2′-amine] |
| – | 159 | 2390 | CC(C)(C)COc1cc(F)c2c(c1)[C@@]1(COC(N)=N1)c1cc(-c3cncnc3)c(F)cc1O2 [Example 525, (4R)-7′-(2,2-dimethylpropoxy)-3′,5′-difluoro-2′-(5-pyrimidinyl)spiro[1,3-oxazole-4,9′-xanthen]-2-amine] |
| 124 | 17.4 | – | CC1(C#Cc2ccc3c(c2)[C@@]2(COC(N)=N2)c2cc(N4CCC(F)(F)C4)ncc2O3)COC1 [Example 163, (5S)-3-(3,3-difluoro-1-pyrrolidinyl)-7-((3-methyl-3-oxetanyl)ethynyl)spiro[chromeno[2,3-c]pyridine-5,4′-[1,3]oxazol]-2′-amine] |
| 70 | 3.5 | – | COc1nc(-c2ccncc2)cc2c1Oc1ccc(-c3cccnc3F)cc1[C@@]21COC(N)=N1 [Example 834, (5S)-7-(2-fluoro-3-pyridinyl)-1-methoxy-3-(4-pyridinyl)spiro[chromeno[2,3-c]pyridine-5,4′-[1,3]oxazol]-2′-amine] |
| – | 2 | 15.9 | Cn1cc(-c2cnc3c(c2)[C@]2(CSC(N)=N2)c2cc(-c4cccnc4F)ccc2O3)cn1 [Example 584, (5S)-7-(2-fluoro-3-pyridinyl)-3-(1-methyl-1H-pyrazol-4-yl)spiro[chromeno[2,3-b]pyridine-5,4′-[1,3]thiazol]-2′-amine] |
| 70 | 1.1 | – | COc1nc(-c2ccnc(F)c2)cc2c1Oc1ccc(-c3cccnc3F)cc1[C@@]21COC(N)=N1 [Example 831, (5S)-7-(2-fluoro-3-pyridinyl)-3-(2-fluoro-4-pyridinyl)-1-methoxyspiro[chromeno[2,3-c]pyridine-5,4′-[1,3]oxazol]-2′-amine] |
| 2 | 0.5 | – | NC1=N[C@@]2(CO1)c1cc(-c3cncc(C#CCO)c3)ccc1Oc1cnc(C3=CCCOC3)cc12 [Example 827, 3-(5-((5S)-2′-amino-3-(5,6-dihydro-2H-pyran-3-yl)spiro[chromeno[2,3-c]pyridine-5,4′-[1,3]oxazol]-7-yl)-3-pyridinyl)-2-propyn-1-ol] |
| – | 0.4 | 15 | CC(C)(C)COc1cc2c(cn1)Oc1ccc(-c3cccnc3F)cc1[C@@]21COC(N)=N1 [Example 609, (5S)-3-(2,2-dimethylpropoxy)-7-(2-fluoro-3-pyridinyl)spiro[chromeno[2,3-c]pyridine-5,4′-[1,3]oxazol]-2′-amine] |
| 8 | 0.4 | – | N#Cc1cccc(-c2ccc3c(c2)[C@@]2(COC(N)=N2)c2cc(C4=CCCOC4)nc(F)c2O3)c1 [Example 742, 3-((5S)-2′-amino-3-(5,6-dihydro-2H-pyran-3-yl)-1-fluorospiro[chromeno[2,3-c]pyridine-5,4′-[1,3]oxazol]-7-yl)benzonitrile] |
| – | 0.4 | 3 | CC#Cc1cncc(-c2ccc3c(c2)[C@@]2(COC(N)=N2)c2cc(OCC4(C)COC4)cc(F)c2O3)c1 [Example 949, (4S)-4′-fluoro-2′-((3-methyl-3-oxetanyl)methoxy)-7′-(5-(1-propyn-1-yl)-3-pyridinyl)spiro[1,3-oxazole-4,9′-xanthen]-2-amine] |
